The values below come from PubChem BioAssay AID1259407 (Chemical Carcinogenesis Research Information System (CCRIS), 2018).

For this series, the system named is CCRIS mutagenicity, Ames/micronucleus/aberration tests. As to the kind of experiment: CCRIS mutagenicity studies.
Setting [1] is: Test System: AMES SALMONELLA TYPHIMURIUM, Strain/Indicator: TA98, Metabolic Activation: NONE, Method: PREINCUBATION
[2] abbreviates: Test System: AMES SALMONELLA TYPHIMURIUM, Strain/Indicator: TA100, Metabolic Activation: NONE, Method: PREINCUBATION

Calls of active or inactive are those of the source. No rule for the calls is given here.

Consider `O=C1C=C2c3ccccc3-c3cccc(c32)C1=O`, for which the mutagenic call (Test System: AMES SALMONELLA TYPHIMURIUM, Strain/Indicator: TM677, Metabolic Activation: NONE, Method: PREINCUBATION) is “active; positive” and the mutagenic call (Test System: AMES SALMONELLA TYPHIMURIUM, Strain/Indicator: TM677, Metabolic Activation: RAT, LIVER, POSTMITOCHONDRIAL SUPERNATANT, AROCLOR 1254, Method: PREINCUBATION) is “active; positive”.
Turning to `O=C1c2ccccc2-c2ccc([N+](=O)[O-])c3cccc1c23`, the mutagenic call is “active; positive” (End Point: IN VITRO MICRONUCLEUS, Test System: HUMAN B-LYMPHOBLASTOID CELLS (MCL-5), Metabolic Activation: NONE); “active; positive in liver and bone marrow” (End Point: In vivo micronucleus, Test System: lacZ mutant frequency in liver, lung, and bone marrow cells, Species: Mouse, Strain/Sex: Big Blue (BALB/c x DBA2)/Male, Route: Oral); “active; positive” (Test System: Human lymphoblastoid cells, Strain/Indicator: MCL-5 (HPRT)/6-Thioguanine, Metabolic Activation: None, Method: Well plates); “active; positive” (Test System: Human lymphoblastoid cells, Strain/Indicator: MCL-5 (tk+/tk-)/Trifluorothymidine, Metabolic Activation: None, Method: Well plates); “active; positive” (Test System: Human lymphoblastoid cells, Strain/Indicator: h1A1v2 (HPRT)/6-Thioguanine, Metabolic Activation: None, Method: Well plates); “active; positive” (Test System: Human lymphoblastoid cells, Strain/Indicator: h1A1v2 (tk+/tk-)/Trifluorothymidine, Metabolic Activation: None, Method: Well plates).
Consider `C/C(C=O)=C(/Cl)C(=O)O`, for which the mutagenic call under setting [1] is “active; positive”; the mutagenic call under setting [2] is “active; positive”; the mutagenic call (Test System: AMES SALMONELLA TYPHIMURIUM, Strain/Indicator: TA104, Metabolic Activation: NONE, Method: PREINCUBATION) was “active; positive”.
As for `CCN(CCCC(=O)O)N=O`, the mutagenic call (Test System: AMES SALMONELLA TYPHIMURIUM, Strain/Indicator: TA1535, Metabolic Activation: RAT, LIVER, S-9, KC500 OR PHENOBARBITAL, Method: LIQUID SUSPENSION) is “active; positive”.
For the molecule `Oc1c(I)cc(Cl)c2cccnc12`, the mutagenic call was “inactive; negative” (Test System: AMES SALMONELLA TYPHIMURIUM, Strain/Indicator: TA97, Metabolic Activation: HAMSTER, LIVER, S-9, AROCLOR 1254 (10%), Method: PREINCUBATION); “inactive; negative” (Test System: AMES SALMONELLA TYPHIMURIUM, Strain/Indicator: TA97, Metabolic Activation: HAMSTER, LIVER, S-9, AROCLOR 1254 (30%), Method: PREINCUBATION); “inactive; negative” (Test System: AMES SALMONELLA TYPHIMURIUM, Strain/Indicator: TA97, Metabolic Activation: NONE, Method: PREINCUBATION); “inactive; negative” (Test System: AMES SALMONELLA TYPHIMURIUM, Strain/Indicator: TA97, Metabolic Activation: RAT, LIVER, S-9, AROCLOR 1254 (10%), Method: PREINCUBATION); “inactive; negative” (Test System: AMES SALMONELLA TYPHIMURIUM, Strain/Indicator: TA97, Metabolic Activation: RAT, LIVER, S-9, AROCLOR 1254 (30%), Method: PREINCUBATION); “inactive; negative” (Test System: AMES SALMONELLA TYPHIMURIUM, Strain/Indicator: TA98, Metabolic Activation: HAMSTER, LIVER, S-9, AROCLOR 1254 (10%), Method: PREINCUBATION). Besides, the mutagenic call (Test System: AMES SALMONELLA TYPHIMURIUM, Strain/Indicator: TA98, Metabolic Activation: HAMSTER, LIVER, S-9, AROCLOR 1254 (30%), Method: PREINCUBATION) was “inactive; negative”; the mutagenic call under setting [1] is “inactive; negative”; the mutagenic call (Test System: AMES SALMONELLA TYPHIMURIUM, Strain/Indicator: TA98, Metabolic Activation: RAT, LIVER, S-9, AROCLOR 1254 (10%), Method: PREINCUBATION) is “inactive; negative”; the mutagenic call (Test System: AMES SALMONELLA TYPHIMURIUM, Strain/Indicator: TA98, Metabolic Activation: RAT, LIVER, S-9, AROCLOR 1254 (30%), Method: PREINCUBATION) is “inactive; negative”; the mutagenic call (Test System: AMES SALMONELLA TYPHIMURIUM, Strain/Indicator: TA100, Metabolic Activation: HAMSTER, LIVER, S-9, AROCLOR 1254 (10%), Method: PREINCUBATION) is “inactive; negative”; the mutagenic call (Test System: AMES SALMONELLA TYPHIMURIUM, Strain/Indicator: TA100, Metabolic Activation: HAMSTER, LIVER, S-9, AROCLOR 1254 (30%), Method: PREINCUBATION) was “inactive; negative”. Moreover, the mutagenic call was “inactive; negative” under setting [2]; “inactive; negative” (Test System: AMES SALMONELLA TYPHIMURIUM, Strain/Indicator: TA100, Metabolic Activation: RAT, LIVER, S-9, AROCLOR 1254 (10%), Method: PREINCUBATION); “inactive; negative” (Test System: AMES SALMONELLA TYPHIMURIUM, Strain/Indicator: TA100, Metabolic Activation: RAT, LIVER, S-9, AROCLOR 1254 (30%), Method: PREINCUBATION); “inactive; negative” (Test System: AMES SALMONELLA TYPHIMURIUM, Strain/Indicator: TA1535, Metabolic Activation: HAMSTER, LIVER, S-9, AROCLOR 1254 (10%), Method: PREINCUBATION); “inactive; negative” (Test System: AMES SALMONELLA TYPHIMURIUM, Strain/Indicator: TA1535, Metabolic Activation: HAMSTER, LIVER, S-9, AROCLOR 1254 (30%), Method: PREINCUBATION); “inactive; negative” (Test System: AMES SALMONELLA TYPHIMURIUM, Strain/Indicator: TA1535, Metabolic Activation: NONE, Method: PREINCUBATION). The mutagenic call was “inactive; negative” (Test System: AMES SALMONELLA TYPHIMURIUM, Strain/Indicator: TA1535, Metabolic Activation: RAT, LIVER, S-9, AROCLOR 1254 (10%), Method: PREINCUBATION); “inactive; negative” (Test System: AMES SALMONELLA TYPHIMURIUM, Strain/Indicator: TA1535, Metabolic Activation: RAT, LIVER, S-9, AROCLOR 1254 (30%), Method: PREINCUBATION); “inactive; negative” (Test System: AMES SALMONELLA TYPHIMURIUM, Strain/Indicator: TA1537, Metabolic Activation: HAMSTER, LIVER, S-9, AROCLOR 1254 (30%), Method: PREINCUBATION); “inactive; negative” (Test System: AMES SALMONELLA TYPHIMURIUM, Strain/Indicator: TA1537, Metabolic Activation: NONE, Method: PREINCUBATION); “inactive; negative” (Test System: AMES SALMONELLA TYPHIMURIUM, Strain/Indicator: TA1537, Metabolic Activation: RAT, LIVER, S-9, AROCLOR 1254 (30%), Method: PREINCUBATION).
With `COc1cc2c(c3oc(=O)c4c(c13)CCOC4=O)[C@@H]1CCO[C@@H]1O2`, the mutagenic call by setting is: under setting [2], “inactive; negative”; (Test System: AMES SALMONELLA TYPHIMURIUM, Strain/Indicator: TA100, Metabolic Activation: RAT, LIVER, S-9, PHENOBARBITAL, Method: PREINCUBATION) “inactive; negative”.
Regarding `COc1nncc2ccccc12`, the mutagenic call reads like this: under setting [1], “inactive; negative”; (Test System: AMES SALMONELLA TYPHIMURIUM, Strain/Indicator: TA98, Metabolic Activation: RAT, LIVER, S-9, PCB, Method: PREINCUBATION) “inactive; negative”; under setting [2], “inactive; negative”; (Test System: AMES SALMONELLA TYPHIMURIUM, Strain/Indicator: TA100, Metabolic Activation: RAT, LIVER, S-9, PCB, Method: PREINCUBATION) “inactive; negative”.
Turning to `O=[N+]([O-])c1ccc(/C=C/c2cccc(Cl)c2)cc1`, the mutagenic call runs as follows: (Test System: AMES SALMONELLA TYPHIMURIUM, Strain/Indicator: TA98 (NR), Metabolic Activation: NONE, Method: STANDARD PLATE) “active; positive”; (Test System: AMES SALMONELLA TYPHIMURIUM, Strain/Indicator: TA98 (NR), Metabolic Activation: S-9, Method: STANDARD PLATE) “active; positive”; (Test System: AMES SALMONELLA TYPHIMURIUM, Strain/Indicator: TA98, Metabolic Activation: NONE, Method: STANDARD PLATE) “active; positive”; (Test System: AMES SALMONELLA TYPHIMURIUM, Strain/Indicator: TA98, Metabolic Activation: S-9, Method: STANDARD PLATE) “active; positive”; (Test System: AMES SALMONELLA TYPHIMURIUM, Strain/Indicator: TA100(NR), Metabolic Activation: NONE, Method: STANDARD PLATE) “inactive; negative”; (Test System: AMES SALMONELLA TYPHIMURIUM, Strain/Indicator: TA100 (NR), Metabolic Activation: S-9, Method: STANDARD PLATE) “active; positive”. Moreover, the mutagenic call is “active; positive” (Test System: AMES SALMONELLA TYPHIMURIUM, Strain/Indicator: TA100, Metabolic Activation: NONE, Method: STANDARD PLATE) and “active; positive” (Test System: AMES SALMONELLA TYPHIMURIUM, Strain/Indicator: TA100, Metabolic Activation: S-9, Method: STANDARD PLATE).
